Data reported in PMC4912613, “A broad analysis of resistance development in the malaria parasite” (Nature Communications, 2016).
Like-named read-outs stand apart in the source and are kept apart here.

Tests used:
[1] = tested on: P. falciparum strain 3D7; assay: Asexual blood stage 3H-hypoxanthine incorporation assay, 3D7; assay type: cell-based, Plasmodium falciparum; conditions: Plasmodium falciparum, 3D7, asexual stage, P. falciparum 3D7; read-out: 3D7 EC50
[2] = tested on: HepG2; assay: Hepatocyte toxicity; assay type: cell-based, human; conditions: for Hepatocyte Toxicity: HepG2; for EC50 fold shift compared to asexual stage: Hepatocyte Toxicity: hepatocyte toxicity / 3D7 EC50; for Liver Stage / Hepatocyte Toxicity: toxicity fold shift for the liver stage (hepatocyte toxicity vs liver stage EC50)
Summary of the method: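 HepG2 cells were pretreated with compound for 2 h, then infected with fresh P. berghei sporozoites. After 48 h, exoerythrocytic-form viability was read by BrightGlo luminescence; hepatocyte toxicity was tested in parallel. EC50s came from 12-point curves run in duplicate, starting at 5 μM or 50 μM.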

[3] = tested on: CYTbQi (cytb G33A, parent Dd2); assay: Cross-resistance EC50 assay, CYTbQi; assay type: cell-based; conditions: Plasmodium falciparum, SYBR green 72 hour assay, synchronized parasites, 384-well format
Summary of the method: (§1)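 EC50 fold shifts were derived from blood-stage growth assays run in parallel on mutant and parent strains within one laboratory. Growth was measured either by tritiated hypoxanthine uptake (48 h) or SYBR Green I staining (72 h).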

[4] = tested on: GNF156R (PfCARL L830V, S1076I and M81I, parent Dd2); assay: Cross-resistance EC50 assay, GNF156R; assay type: cell-based; conditions: Plasmodium falciparum, SYBR green 72 hour assay, asynchronized parasites, 96-well or 1536-well format
Summary of the method: as §1

[5] = tested on: GNF449-R2 (PfATP4 I203L and P990R, parent Dd2); assay: Cross-resistance EC50 assay, GNF449-R2; assay type: cell-based; conditions: Plasmodium falciparum, SYBR green 72 hour assay, asynchronized parasites, 96-well or 1536-well format
Summary of the method: as §1

[6] = tested on: ProRS (prolyl t-RNA synthetase L482H, parent Dd2); assay: Cross-resistance EC50 assay, ProRS; assay type: cell-based; conditions: Plasmodium falciparum, SYBR green 72 hour assay, synchronized parasites, 384-well format
Summary of the method: as §1

[7] = tested on: Dd2; assay: Cross-resistance EC50 assay, Dd2 parent; assay type: cell-based, Plasmodium falciparum; conditions: for EC50: Plasmodium falciparum, DD2, 72 h
[8] = read-out: Dd2 (PARENT) Average EC50
[9] = read-out: Dd2 (PARENT) EC50 (µM) Average EC50

Compound	EC50 [1] [nM]	Hepatocyte Toxicity [2] [µM]	EC50 fold shift compared to asexual stage: Hepatocyte Toxicity [2]	EC50 ([3]; strain CYTbQi (Dd2 parent)) [nM]	EC50 [4] [µM]	EC50 [5] [µM]	EC50 ([6]; strain ProRS (Dd2 parent)) [nM]	EC50 [7, 8] [µM]	EC50 [7, 9] [µM]	EC50 fold-shift, Dd2 compared with 3D7, average ([7]; average) [×]	Liver Stage / Hepatocyte Toxicity [2]	EC50 ([3]; DD2, CYTbQi strain) [nM]	EC50 ([6]; DD2, ProRS strain) [nM]
CCC(C)NCC(O)(c1ccc(Cl)cc1)c1ccc(Cl)cc1 (stereo not shown) [MMV665928]	494	> 5	> 10	492	0.682	0.16	360	0.427	0.331	–	–	–	–
O=C(Nc1ccsc1C(=O)NC1CCCCC1)c1ccc(F)cc1 [MMV665939]	1040	> 5	–	1610	1.28	2.21	2380	1.96	2.06	2.4	–	–	–
Nc1ccc(-c2nc3cc(Cc4ccc5[nH]c(-c6ccc(N)cc6)nc5c4)ccc3[nH]2)cc1 [MMV665943]	316	14.29	45.22	450	0.399	0.588	416	0.412	0.488	–	2.40	–	–
O=C(NC(c1ccccc1)c1ccc2cccnc2c1O)c1ccccc1 (stereo not shown) [MMV666080]	845	1.309	1.55	1290	0.822	1.11	571	0.426	0.886	–	2.82	–	–
COc1cc(C(=O)ON=C(N)Cc2cccc3ccccc23)cc(OC)c1OC [MMV666687]	348	31.52	–	588	0.611	0.813	326	0.314	0.87	–	1.50	–	–
c1cc(-c2cnc3ccc(-c4ccc(N5CCOCC5)cc4)nn23)ccn1 [MMV668311]	48	5.119	106.65	66	0.031	0.03	62	0.056	0.039	–	2.27	–	–
CN(C)CCCNCc1ccc(-c2ccc(Cl)c(Cl)c2)o1 [MMV673964]	607	19.83	32.67	–	1.33	1.05	–	0.426	1.12	–	2.21	319	315
